Counter-ions that a name gives are not always drawn.

A short description of the data set: In vitro rat liver S9 stability assay (formation of tafamidis). Format: in vitro ADME. The note with it: rat liver S9, 1 μM test compound, 37° C. Here is the method:
A stability assay in liver S9 (rat or human) was used to evaluate the ability of a compound provided herein to convert to an active TTR stabilizer. The test compound was added to liver S9 and incubated at 37° C. in a water bath at a concentration of 1 μM. At each time point (0, 5, 10, 20, 30 and 60 min), stop solution (tolbutamide plus labetalol) was added to precipitate protein and mixed thoroughly. After centrifugation, an aliquot of supernatant was analyzed by LC-MS/MS. The percentage of formation of active agent was calculated at each time point.
On to `O=C(c1ccc2nc(-c3cc(Cl)cc(Cl)c3)oc2c1)N(CCO)CCF` [Compound 91], for which the “Formation of tafamidis at 60 min” value is “A (A is <25%)”.
Take `O=C(c1ccc2nc(-c3cc(Cl)cc(Cl)c3)oc2c1)N1CCCC1C(F)(F)F` (stereo not drawn) [Compound 118]: the “Formation of tafamidis at 60 min” value is listed as “A (A is <25%)”.
With `CNCCNC(=O)c1ccc2nc(-c3cc(Cl)cc(Cl)c3)oc2c1` [Compound 9, 2-(3,5-dichlorophenyl)-N-(2-(methylamino)ethyl)benzo[d]oxazole-6-carboxamide hydrochloride] the entry was “A (A is <25%)”.
Then `CC1(OC(=O)c2ccc3nc(-c4cc(Cl)cc(Cl)c4)oc3c2)CCN(CCF)C1` (stereo not drawn) [Compound 120], with “A (A is <25%)”; and `O=C(c1ccc2nc(-c3cc(Cl)cc(Cl)c3)oc2c1)N1CCCC1CO` (stereo not drawn) [Compound 85], with “A (A is <25%)”.
In the case of `O=C(c1ccc2nc(-c3cc(Cl)cc(Cl)c3)oc2c1)N1CC[C@H](O)[C@H](F)C1` [Compound 125], the “Formation of tafamidis at 60 min” value is “A (A is <25%)”.
On to `CCC(Cc1ncc[nH]1)OC(=O)c1ccc2nc(-c3cc(Cl)cc(Cl)c3)oc2c1` (stereo not drawn) [Compound 37, 1-(1H-imidazol-2-yl) butan-2-yl 2-(3,5-dichlorophenyl)benzo-[d]oxazole-6-carboxylate], for which the “Formation of tafamidis at 60 min” value was “A (A is <25%)”.
As for `CC1(OC(=O)c2ccc3nc(-c4cc(Cl)cc(Cl)c4)oc3c2)CCN(CC(F)F)C1` (stereo not drawn) [Compound 122], the “Formation of tafamidis at 60 min” value was “C (C is ≥50 to <75%)”.
Then `O=C(O[C@H]1CCCN2CCC[C@@H]12)c1ccc2nc(-c3cc(Cl)cc(Cl)c3)oc2c1` (single isomer, unassigned) [Compound 70, Octahydroindolizin-8-yl 2-(3,5-dichlorophenyl)benzo[d]oxazole-6-carboxylate], with “A (A is <25%)”; and `CN1CCC(NC(=O)c2ccc3nc(-c4cc(Cl)cc(Cl)c4)oc3c2)C1` (stereo not drawn) [Compound 21, 2-(3,5-dichlorophenyl)-N-(1-methylpyrrolidin-3-yl)benzo[d]oxazole-6-carboxamide], with “A (A is <25%)”.
For the compound `O=C(c1ccc2nc(-c3cc(Cl)cc(Cl)c3)oc2c1)N1CCCCC1CO` (stereo not drawn) [Compound 95], the “Formation of tafamidis at 60 min” value is given as “A (A is <25%)”.
With `O=C(NC1CC1(F)F)c1ccc2nc(-c3cc(Cl)cc(Cl)c3)oc2c1` (stereo not drawn) [Compound 12, 2-(3,5-dichlorophenyl)-N-(2,2-difluorocyclopropyl)benzo[d]-oxazole-6-carboxamide] the entry was “A (A is <25%)”.
For `O=C(NC1CCN(CC(F)(F)F)C1)c1ccc2nc(-c3cc(Cl)cc(Cl)c3)oc2c1` (stereo not drawn) [Compound 24, 2-(3,5-dichlorophenyl)-N-(1-(2,2,2-trifluoroethyl)pyrrolidin-3-yl)benzo[d]oxazole-6-carboxamide], the “Formation of tafamidis at 60 min” value was “A (A is <25%)”.
Consider `CC1(O)CCCN(C(=O)c2ccc3nc(-c4cc(Cl)cc(Cl)c4)oc3c2)C1` (stereo not drawn) [Compound 102], for which the “Formation of tafamidis at 60 min” value is listed as “A (A is <25%)”.
With `O=C(O[C@H]1C[C@@H](O)C1)c1ccc2nc(-c3cc(Cl)cc(Cl)c3)oc2c1` [Compound 63, (cis)-3-hydroxycyclobutyl 2-(3,5-dichlorophenyl) benzo[d]oxazole-6-carboxylate] the entry was “A (A is <25%)”; with `CC(CO)OC(=O)c1ccc2nc(-c3cc(Cl)cc(Cl)c3)oc2c1` (single isomer, unassigned) [Compound 43, 1-hydroxypropan-2-yl 2-(3,5-dichlorophenyl) benzo[d]oxazole-6-carboxylate], “C (C is ≥50 to <75%)”; with `O=C(NC1CCN(CC(F)F)C1)c1ccc2nc(-c3cc(Cl)cc(Cl)c3)oc2c1` (stereo not drawn) [Compound 23, 2-(3,5-dichlorophenyl)-N-(1-(2,2-difluoroethyl)pyrrolidin-3-yl)benzo[d]oxazole-6-carboxamide], “A (A is <25%)”.
Consider `O=C(O[C@H]1C[C@H](O)C1)c1ccc2nc(-c3cc(Cl)cc(Cl)c3)oc2c1` [Compound 64, (trans)-3-hydroxycyclobutyl 2-(3,5-dichlorophenyl) benzo[d]oxazole-6-carboxylate], for which the “Formation of tafamidis at 60 min” value is on record as “B (B is ≥25 to <50%)”.
Regarding `O=C(N[C@H]1C[C@H](O)C1)c1ccc2nc(-c3cc(Cl)cc(Cl)c3)oc2c1` [Compound 26, 2-(3,5-dichlorophenyl)-N-((trans)-3-hydroxycyclobutyl)-benzo[d]oxazole-6-carboxamide], the “Formation of tafamidis at 60 min” value was “A (A is <25%)”.
Turning to `COCCN1CCC(OC(=O)c2ccc3nc(-c4cc(Cl)cc(Cl)c4)oc3c2)C1` (stereo not drawn) [Compound 67, 1-(2-methoxyethyl) pyrrolidin-3-yl 2-(3,5-dichlorophenyl) benzo[d]oxazole-6-carboxylate], the “Formation of tafamidis at 60 min” value is reported as “A (A is <25%)”.
With `COCCNC(=O)c1ccc2nc(-c3cc(Cl)cc(Cl)c3)oc2c1` [Compound 6, 2-(3,5-dichlorophenyl)-N-(2-methoxyethyl)benzo[d]oxazole-6-carboxamide], the “Formation of tafamidis at 60 min” value is given as “A (A is <25%)”.
For `CN(C)[C@@H]1CC[C@@H](OC(=O)c2ccc3nc(-c4cc(Cl)cc(Cl)c4)oc3c2)C1` (relative stereo) [Compound 47, Trans-3-(dimethylamino)cyclopentyl 2-(3,5-dichlorophenyl)benzo-[d]oxazole-6-carboxylate—HCl salt], the “Formation of tafamidis at 60 min” value was “A (A is <25%)”.
With `O=C(c1ccc2nc(-c3cc(Cl)cc(Cl)c3)oc2c1)N1C[C@@H](F)[C@@H](F)C1` [Compound 121], the “Formation of tafamidis at 60 min” value is recorded as “A (A is <25%)”.
For the compound `CC1(O)CCN(C(=O)c2ccc3nc(-c4cc(Cl)cc(Cl)c4)oc3c2)CC1` [Compound 103], the “Formation of tafamidis at 60 min” value is “A (A is <25%)”.
With `O=C(OC1CCN(c2cccnc2)C1)c1ccc2nc(-c3cc(Cl)cc(Cl)c3)oc2c1` (stereo not drawn) [Compound 49, 1-(pyridin-3-yl)pyrrolidin-3-yl 2-(3,5-dichlorophenyl)benzo-[d]oxazole-6-carboxylate] the entry was “B (B is ≥25 to <50%)”; with `O=C(OC1CCN(CCO)C1)c1ccc2nc(-c3cc(Cl)cc(Cl)c3)oc2c1` (stereo not drawn) [Compound 66], “A (A is <25%)”; with `O=C(OC1CCN(c2ccncn2)C1)c1ccc2nc(-c3cc(Cl)cc(Cl)c3)oc2c1` (stereo not drawn) [Compound 53, 1-(pyrimidin-4-yl)pyrrolidin-3-yl 2-(3,5-dichlorophenyl)benzo-[d]oxazole-6-carboxylate], “A (A is <25%)”.
With `CC1(O)CC2(CCN(C(=O)c3ccc4nc(-c5cc(Cl)cc(Cl)c5)oc4c3)C2)C1` (stereo not drawn) [Compound 106] the entry was “A (A is <25%)”; with `O=C(NC1CCCC(F)(F)C1)c1ccc2nc(-c3cc(Cl)cc(Cl)c3)oc2c1` (stereo not drawn) [Compound 14, 2-(3,5-dichlorophenyl)-N-(3,3-difluorocyclohexyl)benzo[d]oxazole-6-carboxamide], “A (A is <25%)”.
In the case of `CC(CO)OC(=O)c1ccc2nc(-c3cc(Cl)cc(Cl)c3)oc2c1` (single isomer, unassigned) [Compound 44, 1-hydroxypropan-2-yl 2-(3,5-dichlorophenyl) benzo[d]oxazole-6-carboxylate], the “Formation of tafamidis at 60 min” value is “C (C is ≥50 to <75%)”.

Values taken from patent US20240190831A1, “TRANSTHYRETIN STABILIZING COMPOUNDS” (Protego Biopharma, Inc., priority 2021, published 2024).
